Measured values as given in paper PMC11941926, “Identification of Antimicrobial Peptides from Nibribacter radioresistens, a UV and Gamma Radiation Tolerant Bacterium” (Genes, 2025).
No end group written: not given here.

Assays:
[1] = tested on: Staphylococcus aureus (SA, ATCC 6538); assay: Antibacterial activity of synthetic NB_AMPs, microtiter plate method (MIC); format: cell-based
Description: (§1) The cell-free supernatant of all E. coli DH5α strains containing cloned AMPs was collected after 24 h of culture and filtered through a 0.2 μm syringe (mixed cellulose esters (MCE), Merck, Darmstadt, Germany), and finally the cell-free supernatant was used for the evaluation of antibacterial activity. The cell-free supernatant from the E. coli DH5α, harboring only the plasmid vector without the NB_AMP genes, was confirmed as a negative control to have very little effect on antibacterial activities. The synthesized AMPs were suspended at a concentration of 10 mg/mL in distilled water and then used for antibacterial activity. The antibacterial activity against the Gram-negative bacterium, E. coli (EC; ATCC 10536), and the Gram-positive bacterium, Staphylococcus aureus (SA, ATCC 6538), was analyzed using the microtiter plate method and expressed as minimal inhibition concentration (MIC); the bacteria pre-cultured overnight (O/N) were cultured at 10^6 CFU/mL with the cell-free supernatant or the synthetic peptides, the reaction mixtures were added to the microtiter plate, and finally the reactivity was observed by O/N culture at 37 °C.

E. coli (EC; ATCC 10536) = assay: as above; format: cell-based, Escherichia coli
Description: as §1

[2] = synthetic peptides, microtiter plate, 10^6 CFU/mL, O/N culture at 37 °C, peptide stock 10 mg/mL in distilled water

Sequence | MIC50 against S. aureus ([1]; ATCC 6538, 24 h) [µg/mL] | MIC50 against E. coli (E. coli (EC; ATCC 10536); ATCC 10536, 24 h) [µg/mL] | MIC50 against S. aureus [1, 2] [µg/mL] | MIC50 against E. coli (E. coli (EC; ATCC 10536); [2]) [µg/mL]
FFGRFKKEK [NB_AMP10] | 2110 | 2600 | – | –
GLQKYLSWVKNKRL [NB_AMP2] | – | – | 230 | 170
GQYNQGGYGSQGGDYGQGGYGQGSMGGGYG [NB_AMP6] | – | – | 5830 | 9430
KGAKKAGKAVKKTVKK [NB_AMP3] | – | – | 2880 | 3430
KKLAAKEKAAAAKEKEAAKKAAAKEKK [NB_AMP9] | – | – | 5050 | –
NTLSSIASLLKK [NB_AMP5] | 3240 | 10210 | – | –
NYKLLSNSLNILL [NB_AMP8] | – | – | 8360 | –
WQEIKNSLEDLSDSI [NB_AMP4] | – | – | 2950 | 4960
